Publication PMC4786016 (Environmental science & technology, 2015)
Counter-ions that a name gives are not always drawn. Like-named read-outs stand apart in the source and are kept apart here.

Legend:
[1] = target: T1, human PPARγ1 (Homo sapiens, UniProt P37231)
[2] = target: T1, human PPARγ1; experiment: GeneBLAzer PPARγ1 non-DA reporter gene assay; conditions: for Emax: HEK293, read-out: ATVmax: maximal activation% of the tested compounds relative to rosiglitazone
[3] = HEK293 PPARγ1 reporter, 15% of rosiglitazone maximal response
[4] = HEK293 PPARγ1 reporter, 20% of rosiglitazone maximal response

| Molecule | NOAEL [1] [µM] | ATVmax: maximal activation% of the tested compounds relative to rosiglitazone [2] [%] | EC15 (concentration inducing 15% activation) [2] [µM] | [ATVmax]: concentration of the tested compounds to induce the maximal activation% [2] [µM] | efficacy (qualitative, based on ATVmax) [2] | EC20 (concentration inducing 20% activation) [2] [µM] | other results |
| --- | --- | --- | --- | --- | --- | --- | --- |
| Oc1c(Br)cc(Br)cc1Br [2,4,6-TBP, 2,4,6-tribrominated phenol] | 0.8 | 18 | 5.89 | 7 | + (key: + 7–20%; ++ 20–30%; +++ 30–40%; ++++ 40–50%; +++++ >50%) |  |  |
| Oc1c(I)cc(I)cc1I [2,4,6-TIP, 2,4,6-triiodinated phenol] | 0.4 | 20 | 8.72 | 11 | ++ (key: + 7–20%; ++ 20–30%; +++ 30–40%; ++++ 40–50%; +++++ >50%) | 11 |  |
| Oc1cc(Br)cc(Br)c1Oc1ccc(Br)cc1Br [6-OH-BDE47, 6-hydroxide-2,2′,4,4′-tetrabromodiphenyl ether (metabolite)] |  | <8 |  |  |  |  | PPARγ1 activation (in words) [2]: no activation was observed |
| CCCCC/C=C/C=C1/C(=O)C=C[C@@H]1C/C=C\CCCC(=O)O [15d-PJG2, 15-Deoxy-D12,14-prostaglandin J2 (endogenous ligands), reference compound] | 0.01 | 85 | 0.51 | 33 | +++++ (key: + 7–20%; ++ 20–30%; +++ 30–40%; ++++ 40–50%; +++++ >50%) | 0.74 | concentration at which the compound began to activate PPARγ1 [2]: 0.01 µM |
| CCCCC(CC)COC(=O)/C=C/C(=O)OCC(CC)CCCC (centres unmarked) [BEHF, bis(2-ethylhexyl) fumarate] |  |  |  |  |  |  | Emax [2]: < 8%; PPARγ1 activation (in words) ([2]; reporter assay): did not display any obvious PPARγ1 activation |
| CCCCOC(=O)c1ccccc1C(=O)OCc1ccccc1 [BzBP, benzylbutyl phthalate] | 0.13 | 34 | 2.94 | 10 | +++ (key: + 7–20%; ++ 20–30%; +++ 30–40%; ++++ 40–50%; +++++ >50%) | 4.81 |  |
| CCCCOC(=O)c1ccccc1C(=O)OCCCC [DBP, dibutyl phthalate] | 0.4 |  |  |  |  |  | Emax [2]: 23%; [ATVmax]: concentration of the tested compounds to induce the maximal activation% ([2]; HEK293 PPARγ1 reporter): 33 µM; efficacy (qualitative, based on ATVmax) ([2]; HEK293 PPARγ1 reporter): ++ (++ 20–30%); EC15 (concentration inducing 15% activation) [2, 3]: 6.73 µM; EC20 (concentration inducing 20% activation) [2, 4]: 13.6 µM |
| CCCCC(CC)COC(=O)c1ccccc1C(=O)OCC(CC)CCCC (centres unmarked) [DEHP, bis(2-ethylhexyl) phthalate] |  |  |  |  |  |  | PPARγ1 activation (in words) ([2]; reporter assay): no activation was observed |
| CC(C)COC(=O)c1ccccc1C(=O)OCC(C)C [DiBP, diisobutyl phthalate] | 0.4 |  | 4.47 | 33 | ++ (key: + 7–20%; ++ 20–30%; +++ 30–40%; ++++ 40–50%; +++++ >50%) | 11.1 | Emax [2]: 25% |
| CN(CCOc1ccc(CC2SC(=O)NC2=O)cc1)c1ccccn1 (centres unmarked) [Rosi., rosiglitazone (positive control), reference compound] |  |  |  |  |  |  | NOAEL ([2]; HEK293 PPARγ1 reporter, nonobservable adverse effect level): 0.00001 µM |
| O=C(O)c1cc(Br)c(Br)c(Br)c1Br [TBBA, 2,3,4,5-tetrabromobenzoic acid (metabolite)] | 1.2 | 20 | 8.16 |  | ++ (key: + 7–20%; ++ 20–30%; +++ 30–40%; ++++ 40–50%; +++++ >50%) | 33 |  |
| CC(C)(C)c1ccc(OP(=O)(Oc2ccc(C(C)(C)C)cc2)Oc2ccc(C(C)(C)C)cc2)cc1 [TBPP, tris (4,tert-butyl-phenyl) phosphate] | 0.4 | 12 |  | 11 | + (key: + 7–20%; ++ 20–30%; +++ 30–40%; ++++ 40–50%; +++++ >50%) |  |  |
| CC(C)(c1cc(Cl)c(O)c(Cl)c1)c1cc(Cl)c(O)c(Cl)c1 [TCBPA, 3,5,3′,5′-tetrachlorobisphenol A] | 0.09 |  |  |  |  |  | [ATVmax]: concentration of the tested compounds to induce the maximal activation% ([2]; HEK293 PPARγ1 reporter): 7 µM; efficacy (qualitative, based on ATVmax) ([2]; HEK293 PPARγ1 reporter): +++++ (+++++ >50%); EC15 (concentration inducing 15% activation) [2, 3]: 0.23 µM; EC20 (concentration inducing 20% activation) [2, 4]: 0.47 µM; ATVmax: maximal activation% of the tested compounds relative to rosiglitazone ([2]; HEK293 PPARγ1 reporter, normalized to maximal response of rosiglitazone): 52% |
| O=P(Oc1ccccc1)(Oc1ccccc1)Oc1ccccc1 [TPP, triphenyl phosphate] | 0.4 | 43 | 2.12 | 11 | ++++ (key: + 7–20%; ++ 20–30%; +++ 30–40%; ++++ 40–50%; +++++ >50%) | 3.27 | concentration at which the compound began to activate PPARγ1 [2]: about 0.4 μM |
| c1ccc(OP(Oc2ccccc2)Oc2ccccc2)cc1 [TPPi, triphenyl phosphite] | 1.2 |  |  |  |  |  |  |
| [Cl][Sn]([c]1ccccc1)([c]1ccccc1)[c]1ccccc1 [TPT, triphenyltin chloride] | 0.0003 | 54 | 0.004 | 0.33 | +++++ (key: + 7–20%; ++ 20–30%; +++ 30–40%; ++++ 40–50%; +++++ >50%) | 0.01 |  |
| Firemaster 550 (mixture) [FM550] | 1.2 |  |  |  |  |  |  |
| isopropylated triaryl phosphates (mixture) [ITP] | 1.2 |  |  |  |  |  |  |
| tert-butyl phenyl diphenyl phosphate (mixture) [BPDP] | 0.4 |  |  |  |  |  |  |
